The numbers were not newly measured in patent publication US20230233180A1, “Emergency Ultrasound Gel” (priority 2022, published 2023), which cites them from elsewhere.

SMILES strings stand for the structures. ≈ marks a conversion by molar mass, not a printed value. Read-outs that look alike come from different tables or passages of the source.

For data set [1], the system named is wide variety of yeast and fungi.
The next data set relates to wide range of bacteria. Conditions: bactericidal.

A word on the MIC: it is the least concentration at which growth counts as inhibited. `CCCCN1CCCCC1C(=O)Nc1c(C)cccc1C` (stereo not shown) [Bupivacaine]: the minimal inhibitory concentration (MIC) is 1300 µg/mL (≈ 4.51 mM) in the data set with Candida albicans (Canddia albicans M9); 2500 µg/mL (≈ 8.67 mM) with Candida albicans (Candida albicans 10231); 2500 µg/mL (≈ 8.67 mM) in the data set on Candida albicans (Candida albicans H33); 5000 µg/mL (≈ 17.3 mM) with Candida albicans (Candida albicans H37); 2500 µg/mL (≈ 8.67 mM) with Candida albicans (Candida albicans H38); 1300 µg/mL (≈ 4.51 mM) in the data set on Candida albicans (Candida albicans M28). Also, the minimum inhibitory concentration (MIC) is 2500 µg/mL (≈ 8.67 mM) in the data set with Candida albicans (Candida albicans M36), 1300 µg/mL (≈ 4.51 mM) with Candida albicans (Candida albicans SCO), 2500 µg/mL (≈ 8.67 mM) in the data set on Candida albicans (Candida albicans Ser5) and 1300 µg/mL (≈ 4.51 mM) in the data set with Candida albicans (Candida. albicans H65).

For the molecule `CCN(CC)CC(=O)Nc1c(C)cccc1C` [Lidocaine], the MIC in the data set with Candida albicans (Canddia albicans M9) was 2500 µg/mL (≈ 10.7 mM); in the data set with Candida albicans (Candida albicans 10231), 5000 µg/mL (≈ 21.3 mM); in the data set on Candida albicans (Candida albicans H33), 5000 µg/mL (≈ 21.3 mM); in the data set on Candida albicans (Candida albicans H37), 10000 µg/mL (≈ 42.7 mM); in the data set on Candida albicans (Candida albicans H38) it was 5000 µg/mL (≈ 21.3 mM); in the data set with Candida albicans (Candida albicans M28), 2500 µg/mL (≈ 10.7 mM). Also, the minimum inhibitory concentration (MIC) in the data set with Candida albicans (Candida albicans M36) was 5000 µg/mL (≈ 21.3 mM); in the data set on Candida albicans (Candida albicans SCO) it was 2500 µg/mL (≈ 10.7 mM); with Candida albicans (Candida albicans Ser5) it was 5000 µg/mL (≈ 21.3 mM); in the data set on Candida albicans (Candida. albicans H65) it was 2500 µg/mL (≈ 10.7 mM).

For `O=C([O-])CNCO.[Na+]` [Sodium hydroxymethylglycinate], in data set [1], the antifungal effect result is “does not have strong antifungal effect”. In the data set with wide range of bacteria, the “concentration that kills a wide range of bacteria” value is given as 0.09%.
